We go through eight molecules from ChEMBL document CHEMBL1201862, “PubChem BioAssay data set” (2004).

Some test systems named below: COLO 205; EKVX; Hs-578T; KM12; LOX IMVI; M14; MDA-N; MOLT-4; NCI-H226; NCI-H522; NCI/ADR-RES; OVCAR-3; SF-539; SK-MEL-2; SK-OV-3; SNB-75; T47D; U-251; UACC-62; HCC 2998.
Holding throughout (assay): NCI tumour cell line growth inhibition, 48 h

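In this assay, cells in 96-well plates receive the compound at five concentrations for 48 hours. Endpoints are linearly interpolated between the surrounding concentrations. Here, GI50 denotes the concentration required for 50% inhibition of growth.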 Calls of active or inactive are those of the source. Cut-off read from the data, not from the text of the source: active = GI50 up to about 1.1 µM and inactive = higher. Peptide text beside a SMILES is read from it. * marks the point of attachment. Boc = CC(C)(C)OC(=O)*

On to `CC1OC(OC2C(CO)OC(O[C@H]3CC[C@@]4(C)C(=CC[C@H]5[C@@H]6C[C@@H]7O[C@](O)(CC[C@H](C)COC8OC(CO)C(O)C(O)C8O)[C@@H](C)[C@@H]7[C@@]6(C)CC[C@@H]54)C3)C(OC3OC(C)C(O)C(O)C3O)C2O)C(O)C(O)C1O` (stereo partly drawn), for which the GI50 is 5.01 µM (inactive) with COLO 205; 17.1 µM (inactive) in the test with EKVX; 2.63 µM (inactive) in the test on Hs-578T; 2.36 µM (inactive) in the test on KM12; 2.17 µM (inactive) with LOX IMVI; 3.05 µM (inactive) in the test with M14. Moreover, the GI50 is 3.4 µM (inactive) with MDA-N; 2.29 µM (inactive) with MOLT-4; 9.62 µM (inactive) in the test on NCI-H226; 2.88 µM (inactive) in the test with NCI-H522; 4.4 µM (inactive) in the test on NCI/ADR-RES; 8.2 µM (inactive) in the test on OVCAR-3. Also, the GI50 in the test with SF-539 was 2.82 µM (inactive); with SK-MEL-2, 6.21 µM (inactive); in the test with SK-OV-3 it was 2.91 µM (inactive); in the test on SNB-75, 2.16 µM (inactive); in the test with T47D it was 3.51 µM (inactive); in the test with U-251 it was 3.15 µM (inactive). In the test with UACC-62, the GI50 is 5.42 µM (inactive).
As to `Cc1ccc(SC2C(=O)C3CC(OCc4ccccc4)C2(C)C3(C)C)cc1` (stereo not drawn), the GI50 in the test on EKVX is 64.7 µM (inactive); in the test with HCC 2998, > 100 µM (inactive); in the test on Hs-578T it was > 100 µM (inactive); with KM12, > 100 µM (inactive); with M14, > 100 µM (inactive); in the test with MDA-N, > 100 µM (inactive). The GI50 in the test with MOLT-4 was 13 µM (inactive); in the test with NCI-H226, > 100 µM (inactive); with NCI/ADR-RES it was > 100 µM (inactive); with OVCAR-3, > 100 µM (inactive); in the test on SF-539, > 100 µM (inactive); in the test on SK-MEL-2, 38.7 µM (inactive). The GI50 is > 100 µM (inactive) with SK-OV-3, 13.1 µM (inactive) with T47D, 39.3 µM (inactive) with U-251 and > 100 µM (inactive) with UACC-62.
Turning to `OC12CC3c4ccccc4NC3C3Oc4cccc5c4C31CCN(CC1CC1)C2C5` (stereo not drawn), the GI50 with COLO 205 is 20.9 µM (inactive); with EKVX it was 16.7 µM (inactive); in the test with Hs-578T, 23.9 µM (inactive); in the test on KM12, 18.8 µM (inactive); in the test with LOX IMVI, 15.9 µM (inactive); with M14, 17.7 µM (inactive). Moreover, the GI50 with MDA-N is 17.9 µM (inactive); in the test on MOLT-4 it was 15.5 µM (inactive); in the test on NCI-H226 it was 26.1 µM (inactive); with NCI-H522, 21.7 µM (inactive); with NCI/ADR-RES, 21.2 µM (inactive); in the test on OVCAR-3, 16.9 µM (inactive). Also, the GI50 in the test with SF-539 was 26.5 µM (inactive); in the test with SK-MEL-2, 19.5 µM (inactive); in the test on SK-OV-3, 18.7 µM (inactive); in the test on SNB-75, 15.3 µM (inactive); in the test with T47D, 18.9 µM (inactive); in the test on U-251, 17.3 µM (inactive). Moreover, in the test with UACC-62, the GI50 was 18.4 µM (inactive).
With `Cc1nnc(N)nc1/C=C/c1c(O)ccc2ccccc12`, the GI50 was 44.4 µM (inactive) in the test on COLO 205; 13.9 µM (inactive) with EKVX; 19.1 µM (inactive) in the test on HCC 2998; 26.2 µM (inactive) with Hs-578T; 34.5 µM (inactive) in the test with KM12; 34.3 µM (inactive) in the test with LOX IMVI. For the same molecule, the GI50 with M14 was 19.4 µM (inactive); with MDA-N it was 28.9 µM (inactive); in the test with MOLT-4, 22.5 µM (inactive); in the test with NCI-H226 it was 21.5 µM (inactive); in the test on NCI/ADR-RES it was 30.8 µM (inactive); with SK-MEL-2, 15.2 µM (inactive). For the same molecule, the GI50 is 27.5 µM (inactive) with SK-OV-3, 36.7 µM (inactive) with T47D, 38.7 µM (inactive) in the test with U-251 and 21.5 µM (inactive) in the test on UACC-62.
`c1ccc2c(c1)c1c(n2CCOCCN2CCCC2)CCCC1`: the GI50 in the test with COLO 205 was 19.5 µM (inactive); with EKVX, 25.9 µM (inactive); in the test on HCC 2998, 16.6 µM (inactive); with Hs-578T, 14.9 µM (inactive); with KM12 it was > 10 µM (inactive); with LOX IMVI, 18.5 µM (inactive). The GI50 was 15.6 µM (inactive) with M14; 19.4 µM (inactive) with MDA-N; 16.7 µM (inactive) in the test on MOLT-4; 22.4 µM (inactive) with NCI-H226; 19 µM (inactive) in the test on NCI/ADR-RES; 25.4 µM (inactive) with OVCAR-3. Also, the GI50 was 14.5 µM (inactive) in the test on SF-539; 16.4 µM (inactive) with SK-MEL-2; 31.3 µM (inactive) in the test on SK-OV-3; 27.3 µM (inactive) with SNB-75; 28.7 µM (inactive) in the test with T47D; 13.1 µM (inactive) in the test on U-251. The GI50 in the test with UACC-62 is 18.6 µM (inactive).
With `CSCCC(NC(=O)C(CC(C)C)NC(=O)CNC(=O)OC(C)(C)C)C(=O)N(C)C` (stereo not drawn) (Boc-Gly-Leu-Met-NMe2; configuration not given here), the GI50 with COLO 205 is > 100 µM (inactive); with EKVX it was > 100 µM (inactive); in the test on Hs-578T, 4 µM (inactive); in the test on KM12, > 100 µM (inactive); with LOX IMVI it was > 100 µM (inactive); in the test with M14, > 100 µM (inactive). Further, the GI50 in the test with MDA-N, in the test with MOLT-4, with NCI-H226, with NCI-H522, in the test on NCI/ADR-RES and in the test with SF-539 was > 100 µM (inactive) throughout. The GI50 with SK-MEL-2 was > 100 µM (inactive); with SK-OV-3, > 100 µM (inactive); with SNB-75 it was 0.0272 µM (active); with T47D, > 100 µM (inactive); in the test on U-251, > 100 µM (inactive); with UACC-62 it was > 100 µM (inactive).
With `COC(CNC(=O)C(C)NC(=O)/C=C/c1ccccc1)OC` (stereo not drawn), the GI50 in the test on COLO 205, with EKVX, with Hs-578T, with KM12, with M14 and in the test with MDA-N was > 100 µM (inactive) each time. For the same molecule, the GI50 was > 100 µM (inactive) with MOLT-4; > 100 µM (inactive) in the test with NCI-H226; 62.1 µM (inactive) in the test on NCI-H522; > 100 µM (inactive) in the test on NCI/ADR-RES; > 100 µM (inactive) in the test on SF-539; > 100 µM (inactive) with SK-MEL-2. In addition, the GI50 with SK-OV-3, in the test on SNB-75, in the test with T47D, with U-251 and in the test with UACC-62 was > 100 µM (inactive) each time.
Regarding `Nc1[nH]c(=S)[nH]c(=O)c1/N=N/c1c(Br)cc(S(N)(=O)=O)cc1Br`, the GI50 with COLO 205, in the test on EKVX, with Hs-578T, with KM12, with LOX IMVI and in the test on M14 was > 100 µM (inactive) throughout. In addition, the GI50 in the test on MDA-N, in the test with MOLT-4, with NCI-H226, in the test on NCI-H522, with NCI/ADR-RES and in the test with OVCAR-3 was > 100 µM (inactive) each time. The GI50 with SF-539 was > 100 µM (inactive); in the test with SK-MEL-2 it was > 100 µM (inactive); with SK-OV-3, > 100 µM (inactive); in the test with SNB-75, 35.7 µM (inactive); in the test on T47D, > 100 µM (inactive); with U-251 it was > 100 µM (inactive). Also, the GI50 in the test on UACC-62 is > 100 µM (inactive).
